In the supplement of paper PMC8960247:
Structures can show the parent of a compound that is named as a salt. ± gives the standard error.

Experiments:
621-102 (TSC2-deficient) = assay: relative viability vs DMSO; higher = less cytotoxic; conditions: serum: 10% FBS, 72 h
621-103 (TSC2-rescued) = assay: as above; conditions: serum: 10% FBS, 72 h
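Also: immortalized renal angiomyolipoma cells stably carrying empty vector or TSC2, dosed in 384-well plates in DMEM, viability normalized to vehicle-treated wells within each plate.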

| Structure (SMILES) | relative viability (621-102 (TSC2-deficient); 0.0001 µM) [%] | relative viability (621-102 (TSC2-deficient); 0.001 µM) [%] | relative viability (621-102 (TSC2-deficient); 0.01 µM) [%] | relative viability (621-102 (TSC2-deficient); 0.1 µM) [%] | relative viability (621-102 (TSC2-deficient); 1 µM) [%] | relative viability (621-102 (TSC2-deficient); 10 µM) [%] | relative viability (621-103 (TSC2-rescued); 0.0001 µM) [%] | relative viability (621-103 (TSC2-rescued); 0.001 µM) [%] | relative viability (621-103 (TSC2-rescued); 0.01 µM) [%] | relative viability (621-103 (TSC2-rescued); 0.1 µM) [%] | relative viability (621-103 (TSC2-rescued); 1 µM) [%] | relative viability (621-103 (TSC2-rescued); 10 µM) [%] |
| --- | --- | --- | --- | --- | --- | --- | --- | --- | --- | --- | --- | --- |
| CC(C)(Oc1ccc(C2CC2(Cl)Cl)cc1)C(=O)O (stereo not drawn) [Ciprofibrate] | 105.1 ± 0.47 | 100 ± 4.4 | 103.6 ± 0.33 | 93.48 ± 0.86 | 97 ± 5.4 | 102 ± 1.7 | 107 ± 2.5 | 102 ± 3.9 | 98.7 ± 5 | 109.4 ± 0.22 | 103.1 ± 0.95 | 102 ± 1.3 |
| NC1(Cc2ccc(Cl)cc2)CCN(c2ncnc3[nH]ccc23)CC1 | 65.2 ± 2.3 | 81 ± 1.2 | 81.4 ± 1.9 | 92.8 ± 5.6 | 77.3 ± 3.3 | 60.6 ± 1 | 114 ± 2.5 | 102 ± 1.4 | 111 ± 2.4 | 102 ± 5.5 | 96.3 ± 4.4 | 72 ± 0.83 |
| CC(NC(C)(C)C)C(=O)c1cccc(Cl)c1 (stereo not drawn) [Amfebutamone] | 110 ± 2.9 | 103 ± 1.4 | 104.4 ± 0.4 | 112 ± 2.4 | 103 ± 2.4 | 103 ± 3.5 | 103.2 ± 0.3 | 105 ± 2.2 | 98.8 ± 1.9 | 101 ± 2.8 | 102 ± 2.8 | 102 ± 1.2 |
| CN1CCN(c2c(F)cc3c(=O)c(C(=O)O)cn(CCF)c3c2F)CC1 [Fleroxacin (Quinodis)] | 104 ± 1.2 | 111 ± 3.5 | 102 ± 2.7 | 91.53 ± 0.47 | 90.9 ± 1.1 | 91.6 ± 4.7 | 96.7 ± 2.6 | 92.52 ± 0.83 | 92.3 ± 1.4 | 98.4 ± 1.5 | 105 ± 5 | 109 ± 1.7 |
| CC[C@@]1(O)C(=O)OCc2c1cc1n(c2=O)Cc2cc3ccccc3nc2-1 [Camptothecine] | 104.3 ± 0.41 | 106 ± 1.9 | 101 ± 2.4 | 57.8 ± 2.9 | 12 ± 0.68 | 19.5 ± 1.7 | 100.6 ± 0.37 | 100.7 ± 0.47 | 96.3 ± 4.5 | 44.6 ± 2.1 | 10.3 ± 0.36 | 17.79 ± 0.099 |
| CC(C)NCC(O)c1ccc(O)c(O)c1 (stereo not drawn) [Isoprenaline HCl] | 103 ± 4.7 | 99.5 ± 2.4 | 102 ± 1.1 | 95.5 ± 4.2 | 94.6 ± 2.4 | 98.26 ± 0.6 | 95.6 ± 2 | 88 ± 5.3 | 91.5 ± 1.7 | 94.2 ± 6.9 | 91.3 ± 2.6 | 83.3 ± 1.6 |
| N#CCNC(=O)c1ccc(-c2ccnc(Nc3ccc(N4CCOCC4)cc3)n2)cc1 [Cyt387] | 101 ± 5.9 | 109 ± 4.2 | 110 ± 1 | 113 ± 1.4 | 104 ± 0.75 | 73.3 ± 2.2 | 115 ± 0.87 | 105.2 ± 0.63 | 110 ± 1.1 | 110.2 ± 0.81 | 106 ± 3.2 | 83.38 ± 0.51 |
| C#Cc1cccc(Nc2ncnc3cc(OCCOC)c(OCCOC)cc23)c1 [Erlotinib] | 106.7 ± 1 | 102 ± 3.1 | 107.7 ± 1 | 103 ± 1.4 | 97.8 ± 1.9 | 96.7 ± 3.3 | 99.81 ± 0.92 | 101 ± 1.1 | 104 ± 2.2 | 101.3 ± 0.39 | 101 ± 2.7 | 96.6 ± 3.3 |
| CNC(=O)c1cc(Oc2ccc(NC(=O)Nc3ccc(Cl)c(C(F)(F)F)c3)cc2)ccn1 [Sorafenib Tosylate] | 90.38 ± 0.54 | 99.7 ± 5.4 | 113 ± 6.4 | 110.1 ± 0.44 | 127 ± 1.7 | 82.2 ± 13 | 97.89 ± 0.32 | 102 ± 2 | 106 ± 1.2 | 102 ± 1.9 | 102 ± 1.6 | 44.5 ± 3.4 |
| COc1ccc(-c2oc3c(CC=C(C)C)c(O[C@@H]4O[C@H](CO)[C@@H](O)[C@H](O)[C@H]4O)cc(O)c3c(=O)c2O[C@@H]2O[C@@H](C)[C@H](O)[C@@H](O)[C@H]2O)cc1 [Icariin] | 93.6 ± 10 | 92.7 ± 2.9 | 89.44 ± 0.27 | 102 ± 5.1 | 87.9 ± 11 | 80.99 ± 0.32 | 116 ± 1.2 | 105 ± 3.3 | 109 ± 1.2 | 101 ± 1.4 | 98.3 ± 5.3 | 116 ± 3.7 |
| NC1(c2ccc(-c3nc4ccn5c(=O)[nH]nc5c4cc3-c3ccccc3)cc2)CCC1 [MK-2206] | 102.1 ± 0.84 | 102 ± 4.5 | 101 ± 2.4 | 98.62 ± 0.66 | 95.7 ± 1.4 | 59 ± 3.6 | 79.7 ± 4.3 | 81.98 ± 0.32 | 79.4 ± 1.1 | 77.6 ± 1.3 | 74 ± 2.4 | 25.2 ± 3.4 |
| C[C@@H]1CCO[C@H]2Cn3cc(C(=O)NCc4ccc(F)cc4F)c(=O)c(O)c3C(=O)N12 | 102 ± 1.5 | 104 ± 2.7 | 102.2 ± 0.83 | 106 ± 2.5 | 93.7 ± 9.2 | 108 ± 3.5 | 111.7 ± 0.85 | 109 ± 5.8 | 111 ± 2.1 | 117 ± 2.9 | 112 ± 4 | 109 ± 3.2 |
| COC(=O)[C@H](c1ccccc1Cl)N1CCc2sccc2C1 [Clopidogrel Bisulfate] | 105 ± 1.4 | 102 ± 1.4 | 108.3 ± 0.95 | 105 ± 1.4 | 105 ± 4 | 99.8 ± 5.3 | 109.1 ± 0.85 | 108 ± 4.5 | 111 ± 4.1 | 103 ± 2 | 104.86 ± 0.079 | 102.2 ± 0.55 |
| CNCCC(Oc1ccc(C(F)(F)F)cc1)c1ccccc1 (stereo not drawn) [Fluoxetine HCl] | 101.3 ± 0.38 | 100 ± 1.8 | 109 ± 2.5 | 107 ± 2.1 | 99.3 ± 1.1 | 86.9 ± 2.2 | 100 ± 4.3 | 109 ± 2 | 106 ± 1.8 | 99.6 ± 1.9 | 104 ± 1.3 | 70.9 ± 2 |
| COC(=O)C1=C(C)NC(C)=C(C(=O)OCC(C)C)C1c1ccccc1[N+](=O)[O-] (stereo not drawn) [Nisoldipine] | 100 ± 4.6 | 95.6 ± 4.7 | 104.6 ± 0.62 | 106.7 ± 0.045 | 111 ± 2.9 | 65.91 ± 0.65 | 110 ± 5.8 | 109 ± 7.6 | 108 ± 4 | 111 ± 6.1 | 100 ± 2.3 | 67.8 ± 4.5 |
| FC(F)(F)c1ccc(Nc2nc3ccc(Oc4ccnc(-c5ncc(C(F)(F)F)[nH]5)c4)cc3[nH]2)cc1 [Raf265 derivative] | 113.2 ± 0.3 | 94.5 ± 1.8 | 106.8 ± 0.2 | 112 ± 4.1 | 102 ± 6.6 | 72.52 ± 0.56 | 110 ± 2.7 | 108 ± 6.7 | 94.7 ± 5 | 103 ± 5.7 | 101 ± 4.6 | 73.2 ± 7 |
| Cc1[nH]nc2ccc(-c3cncc(OC[C@@H](N)Cc4ccccc4)c3)cc12 | 114.1 ± 0.3 | 108 ± 3.1 | 97.8 ± 2.1 | 99.05 ± 0.49 | 66.5 ± 1.1 | 2.57 ± 0.016 | 98.7 ± 4.7 | 89.14 ± 0.74 | 95.77 ± 0.18 | 101 ± 4 | 62.2 ± 1 | 6.08 ± 0.71 |
| Nc1nc(=O)[nH]cc1F [Flucytosine (Ancobon)] | 92.9 ± 2.9 | 99.4 ± 1.2 | 103.85 ± 0.042 | 102.2 ± 0.19 | 98.4 ± 4.1 | 92.5 ± 3.2 | 105.5 ± 0.24 | 101 ± 3.4 | 104.5 ± 0.84 | 106 ± 1.2 | 103 ± 1.4 | 98.9 ± 4.4 |
| CN(C)C(=O)Oc1cccc([N+](C)(C)C)c1 [Neostigmine bromide (Prostigmin)] | 103 ± 4.6 | 114 ± 3 | 104.2 ± 0.97 | 102 ± 7.2 | 102 ± 6 | 101.3 ± 0.82 | 92.6 ± 3.7 | 93.3 ± 2.9 | 93.6 ± 1.3 | 95.7 ± 2.7 | 93.8 ± 2.1 | 92.44 ± 0.58 |
